Results: patent US20020022587A1, “Methods for effecting neuroprotection” (priority 2000, published 2002)

Key:
[1] = system: magnocellular neurons of the paraventricular nucleus (PVN); test: NMDA agonist excitotoxicity after PVN microinjection, histological count of surviving magnocellular neurons, Sprague-Dawley rats; assay type: in vivo, rat; details: counted three days later
Experimental: Experiments were performed on male Sprague-Dawley rats (150-525 g. Charles River, P.Q., Canada). The animals were anesthetized with sodium pentobarbitol (65 mg/kg, ip), placed in a stereotaxic frame and the skull exposed, and a small burr hole drilled in the skull such that a cannula electrode (tip diameter 150 μm) could be advanced into the region of the PVN according to the coordinates of Paxinos and Watson (−0.9 mm Bregma, 0.5 mm lateral, 7.5 mm ventral) (Paxinos and Watson, The Rat Brain in Stereotaxic Coordinates, Academic Press, New York (1982)). Each animal received a 1.0 μl microinjection to each PVN (2×0.5 μl) according to one of the following protocols, saline/saline, saline/NMDA, 4-AP/saline, 4-AP/NMDA, angiotensin-II/saline, angiotensin-II/NMDA, saralasin (SAR)/NMDA. The incision was then closed and the animal received the analgesic Buprenorphin (0.03 mg/kg, SQ) to aid postoperative recovery. Animals were allowed to recover for three days after which they were overdosed with sodium pentobarbitol (100 mg/kg) and perfused with 0.9% saline followed by 10% formalin through the left ventricle of the heart. The brain was removed, placed in formalin overnight at […]. The brain was then cut into a smaller block contained PVN and stored in a 30% sucrose, 0.1 M phosphate buffer at 4° C. for at least two days.
The blocks were mounted, covered with Tissue-Tek O.C.T. compound (Sakura) and flash frozen in 2-methyl butane (cooled by dry ice) for 45 seconds. Using the Frigocut 280 (Reichart Jung), 20 μm coronal sections were cut through the area of PVN. These sections were mounted and cresyl violet stained. The histological locations of the microinjection sites were verified at the light microscope level by an observer unaware of the experimental conditions. Only those animals with microinjection within the boundaries of PVN were further analyzed.
Magnocellular neurons were differentiated from parvocellular neurons and cellular material by specific morphological characteristics (Sawchenko and Swanson, J. Comp. Neuro. 218:121-44 (1983)). In addition to the anatomical location of the neuron within PVN, morphological size was used to further characterize neuronal type. Neurons with soma diameter of approximately 20-25 μm and intact nuclei were characterized as viable magnocellular neurons. Neurons with soma diameter of between 15 and 20 μm were not included in the study, as they could not be reliably classified as belonging to either subpopulation. Histological sections were viewed under high magnification (40×) at the light microscope level and a grid was superimposed over each area of PVN. […] Comparative analyses were performed whereby neurons were counted in 20 μm sections following the initial emergence of PVN. […]

[2] = system: outwardly rectifying whole-cell K+ current of isolated PVN neurons; test: Voltage clamp recordings from dissociated PVN neurons, voltage ramps; assay type: cell-based, rat; details: voltage ramps 100 mV/sec
Experimental: Male, Sprague-Dawley rats (150-250 g, Charles River, P.Q., Canada) were killed by decapitation, the brain was removed quickly from the skull and immersed in cold (1-4° C.) artificial cerebrospinal fluid (aCSF). The brain was blocked and 400 μm hypothalamic slices, which included the PVN, were prepared as described in Bains and Ferguson (NeuroReport 8(9-10):2101-05 (1997)). Slices were incubated in oxygenated aCSF (95% O2, 5% CO2) for at least 90 minutes at room temperature. Twenty minutes prior to recording, the slice was transferred into a modified interface type recording chamber and continuously perfused with aCSF at a rate of 1 ml/min.
For isolated neurons, pipettes of 1-4 MΩ were filled with a pipette solution containing (in mM): potassium-gluconate (130), EGTA(10), MgCl2 (1), HEPES (10), Na2ATP (4), GTP (0.1), adjusted to pH 7.2 with KOH. The standard bath solution contained (inmM): NaCl (140), KCl (5), MgCl2 (1), CaCl2 (2), HEPES (10), glucose (10) and […] tetrodotoxin (TTX) (Alamone Labs, Jerusalem, Israel). Signals were amplified, collected and processed using an Axopatch 200B (Axon Instruments) amplifier, a 1401plus A-D interface and Signal software from C.E.D. […]

[3] = system: parvocellular neurons of the paraventricular nucleus (PVN); test: NMDA agonist excitotoxicity after PVN microinjection, histological count of surviving parvocellular neurons, Sprague-Dawley rats; assay type: in vivo, rat
Experimental: Experiments were performed on male Sprague-Dawley rats (150-525 g. Charles River, P.Q., Canada). The animals were anesthetized with sodium pentobarbitol (65 mg/kg, ip), placed in a stereotaxic frame and the skull exposed, and a small burr hole drilled in the skull such that a cannula electrode (tip diameter 150 μm) could be advanced into the region of the PVN according to the coordinates of Paxinos and Watson (−0.9 mm Bregma, 0.5 mm lateral, 7.5 mm ventral) (Paxinos and Watson, The Rat Brain in Stereotaxic Coordinates, Academic Press, New York (1982)). Each animal received a 1.0 μl microinjection to each PVN (2×0.5 μl) according to one of the following protocols, saline/saline, saline/NMDA, 4-AP/saline, 4-AP/NMDA, angiotensin-II/saline, angiotensin-II/NMDA, saralasin (SAR)/NMDA. […]
The blocks were mounted, covered with Tissue-Tek O.C.T. compound (Sakura) and flash frozen in 2-methyl butane (cooled by dry ice) for 45 seconds. […] Only those animals with microinjection within the boundaries of PVN were further analyzed.
Magnocellular neurons were differentiated from parvocellular neurons and cellular material by specific morphological characteristics (Sawchenko and Swanson, J. Comp. Neuro. 218:121-44 (1983)). […] Comparative analyses were performed whereby neurons were counted in 20 μm sections following the initial emergence of PVN. […]

[4] = system: magnocellular neurons of the paraventricular nucleus (PVN); test: NMDA agonist excitotoxicity after PVN microinjection, surviving magnocellular neurons, spontaneously hypertensive rats; assay type: in vivo, rat
Source text: (§1) To determine whether magnocellular neurons in hypertensive rats with increased central angiotensin-II lose their resistance to excitotoxins as a consequence of endogenous angiotensin-II inhibiting the transient K^+ conductance, NMDA agonist or vehicle control was microinjected into PVN and surviving neurons were counted three days later. Following such treatment, a similar loss of parvocellular neurons to that found in normotensive animals was observed (82±2% surviving), while the resistance of magnocellular neurons was no longer observed in these animals (71±5% surviving) (see FIG. 3 for specific N values). To confirm that angiotensin-II was responsible for this loss of resistance, the NMDA agonist was next microinjected into PVN of spontaneously hypertensive rats immediately following the angiotensin-II receptor antagonist saralasin. […] These findings provide the first direct evidence that elevated angiotensin-II concentrations in the central nervous system of hypertensive animals may contribute to the increased susceptibility for stroke and that these actions can be prevented by central angiotensin-II receptor blockade. […]
(§2) The blocks were mounted, covered with Tissue-Tek O.C.T. compound (Sakura) and flash frozen in 2-methyl butane (cooled by dry ice) for 45 seconds. […] Only those animals with microinjection within the boundaries of PVN were further analyzed. […]

[5] = system: parvocellular neurons of the paraventricular nucleus (PVN); test: NMDA agonist excitotoxicity after PVN microinjection, surviving parvocellular neurons, spontaneously hypertensive rats; assay type: in vivo, rat; details: NMDA agonist alone into PVN, counted three days later
Source text: as §1, §2

[6] = Li et al., Brain Res. Bull. 30:33-39 (1993); cited from earlier work
[7] = substance microinjected into PVN prior to NMDA agonist
[8] = substance microinjected into PVN alone

Nc1ccncc1 [4-AP, 4-aminopyridine]
proportion of magnocellular neurons surviving [1, 7]: 78.9±4.6% | inhibition of outwardly rectifying whole-cell current ([2]; 100 μM): inhibited | effect of 4-AP on parvocellular neuron population ([3]; 4-AP pretreatment before NMDA agonist microinjection): no significant effect | proportion of parvocellular neurons surviving ([3]; NMDA agonist microinjection, PVN treated with 4-AP): 80.9±3.0%

N[C@@H](C(=O)O)c1nnn[nH]1 [NMDA agonist, D-1-tetrazol-5yl-glycine]
magnocellular neurons surviving ([4]; hypertensive rats, NMDA agonist alone into PVN, counted three days later): 71±5% | proportion of magnocellular neurons surviving [1, 8]: 100.0±2.4% | parvocellular neurons surviving [5]: 82±2%

CNCC(=O)N[C@@H](CCCN=C(N)N)C(=O)N[C@H](C(=O)N[C@@H](Cc1ccc(O)cc1)C(=O)N[C@H](C(=O)N[C@@H](Cc1cnc[nH]1)C(=O)N1CCC[C@H]1C(=O)N[C@@H](C)C(=O)O)C(C)C)C(C)C [saralasin, Sar^1Ala^8-angiotensin-II]
effect on cell viability ([4]; SHR PVN, saralasin by itself): no effect | crossing of the blood-brain barrier [6]: does not cross the blood-brain barrier

a-dendrotoxin [a-DTX]
inhibition of outwardly rectifying whole-cell current, compared with 100 μM 4-AP ([2]; 1 μM): to an equal degree

angiotensin-II: octapeptide hormone, end product of the RAS, powerful arterial vasoconstrictor
proportion of magnocellular neurons surviving [1, 8]: 97.4±4.2% | proportion of magnocellular neurons surviving [1, 7]: 80.8±3.75%
